The values that follow are results of earlier work, collected in EP4781989A1, “POSACONAZOLE SOLID DISPERSION AND PREPARATION METHOD THEREFOR” (BEIJING DELIVERY PHARMACEUTICAL TECHNOLOGY CO., LTD, priority 2023, dated 2024).

Where two headings read alike, the source gives them in different places.

As for `CC[C@@H]([C@H](C)O)n1ncn(-c2ccc(N3CCN(c4ccc(OC[C@@H]5CO[C@@](Cn6cncn6)(c6ccc(F)cc6F)C5)cc4)CC3)cc2)c1=O` [Posaconazole], the solubility entry reads like this: (at about pH 6.4 or higher) “less than 1 µg/mL”; (gastric environment with about pH 1) “about 0.8 mg/mL”.
